Patent US20260224563A1, “CRYSTALLINE FORMS OF 6-(3-((5-CHLORO-2-METHOXYPYRIDINE)-3-SULFONAMIDO)-2,6-DIFLUOROPHENYL)-N-METHYLIMIDAZO[1,5-A]PYRAZINE-1-CARBOXAMIDE AND METHODS FOR USING THE SAME” (HIBERCELL, INC., priority 2023, published 2026)
Read-outs that look alike come from different tables or passages of the source.

Assay: Multicenter, open-label, Phase 1a/b study of HC-7366 in subjects with advanced solid tumors (safety, PK)
Format: in vivo
Settings: for ARAUC: accumulation ratio based on AUC0-τ; for ARAUC / CL/F / Ctrough / DAUC0-last / DAUC0-τ / DCmax / tlast / Cmax / half-life / AUC(0-t) / Vd/F / Tmax: human; for Cmax / half-life / AUC(0-t) / Vd/F / Tmax: plasma, po; for Vd/F: read-out: Vz/F
From the text: Identify the maximum tolerated dose (MTD) and/or recommended Phase 2 dose (RP2D) of HC-7366, and evaluate the safety, tolerability, and dose-limiting toxicities (DLTs) of HC-7366 using Form III of the potassium salt of the compound of formula (I) (see Example 6, also referred to within this example as HC-7366-K), in subjects with advanced solid tumors, including: • a. occurrence of DLTs • b. incidence and severity of treatment-emergent adverse events (TEAEs) and treatment related TEAEs according to National Cancer Institute Common Terminology Criteria for Adverse Events (NCI CTCAE) v 5.0 • c. incidence of TEAEs leading to premature discontinuation • d. incidence of laboratory abnormalities, based on NCI CTCAE grades of hematology, serum chemistry, and urinalysis test results • e. incidence of abnormalities observed in 12 lead ECG parameters • f. incidence of abnormalities observed in vital signs measurements
Determine plasma concentration and pharmacokinetic (PK) parameters following treatment with HC-7366 using Form III of the potassium salt of the compound of formula (I) (see Example 6, also referred to within this example as HC-7366-K).
Preliminarily assess the potential antitumor activity of HC-7366 in terms of response rate, disease stabilization, and survival outcomes by assessing: • a. Overall response rate (ORR) to HC-7366 using response evaluation criteria in solid tumors (iRECIST) • b. Duration of response (DOR) to HC-7366 using iRECIST • c. Time to treatment failure (TTF) • d. Progression free survival (PFS) using iRECIST • e. Overall survival (OS)
This is a first in human, multicenter, open label, Phase 1a and 1b dose-escalation and dose-expansion study to establish the maximum tolerated dose, recommended Phase 2 dose, and evaluate the safety and tolerability of QD oral dosing of HC 7366 in a dose escalating fashion in subjects with advanced solid tumors. Up to 40 subjects were enrolled into the Phase 1a dose-escalation part of the study. The study was conducted in the United States at approximately 7 to 10 sites.
Every effort was made to ensure approximately 50% of all subjects enrolled into Phase 1a of this study are subjects with the tumors of special interest including squamous cell carcinoma of the head and neck, colorectal cancer, non-small cell lung cancer, and transitional cell carcinoma of the bladder. […] All subjects in Phase 1b enrolled with clear cell renal cell carcinoma. The Phase 1a study followed a traditional 3+3 design. The starting dose level was 10 mg QD, escalating to 20, 40, 75, 125, and 150 mg QD as safety allows. All doses were administered in the fasting state with water at least 1 hour before food or at least 2 hours after food.
The Phase 1b dose-expansion was at a single dose level of 75 mg based on the safety, tolerability, PK/PD results from Phase 1a to obtain additional safety and preliminary efficacy information. Up to 30 subjects were enrolled in the Phase 1b portion of the study at the 75 mg dose. Replacement patients were enrolled as necessary. Subjects were dosed until unacceptable toxicity, disease progression per immune-related Response Evaluation Criteria in Solid Tumors, discontinuation of treatment for other protocol allowed reason (eg, subject refusal), any other administrative reasons, or after 2 years of treatment, whichever occurs first.
For scheduling purposes, dosing in Phase 1a and 1b occurred in 3 week cycles and computed tomography scans were conducted once every 6 weeks from Cycle 1/Day 1, with the first postbaseline scan after 6 weeks of dosing (precycle 3) until confirmed disease progression, death, start of new anticancer therapy, withdrawal of consent, or end of study, whichever occurs first.
Subjects of Phase 1a and 1b spent Cycle 1/Day 1 (C1D1) in the clinic followed by an optional overnight stay for safety monitoring and PK sampling. Subjects were hospitalized (optional) for administration of the first 2 doses: C1D1 and Cycle 1/Day 2 (C1D2). […]

[1] = multiple once daily oral 10 mg (N = 3), Cycle 1 Day 21, geometric mean
[2] = multiple once daily oral 20 mg (N = 3), Cycle 1 Day 21, geometric mean
[3] = multiple once daily oral 40 mg (N = 8), Cycle 1 Day 21, geometric mean
[4] = multiple once daily oral 75 mg (N = 7), Cycle 1 Day 21, geometric mean
[5] = multiple once daily oral 125 mg (N = 1), Cycle 1 Day 21
[6] = human subjects, multiple once daily oral administration, 10 mg
[7] = human subjects, multiple once daily oral administration, 20 mg
[8] = human subjects, multiple once daily oral administration, 40 mg
[9] = human subjects, multiple once daily oral administration, 75 mg
[10] = human subjects, multiple once daily oral administration, 125 mg (N=1)
[11] = 10 mg, multiple once daily oral 10 mg (N = 3), Cycle 1 Day 21, geometric mean
[12] = 10 mg, single oral dose 10 mg (N = 3), Cycle 1 Day 1, geometric mean
[13] = 20 mg, multiple once daily oral 20 mg (N = 3), Cycle 1 Day 21, geometric mean
[14] = 20 mg, single oral dose 20 mg (N = 3), Cycle 1 Day 1, geometric mean
[15] = 40 mg, multiple once daily oral 40 mg (N = 8), Cycle 1 Day 21, geometric mean
[16] = 40 mg, single oral dose 40 mg (N = 11), Cycle 1 Day 1, geometric mean

CNC(=O)c1ncn2cc(-c3c(F)ccc(NS(=O)(=O)c4cc(Cl)cnc4OC)c3F)ncc12 [HC-7366, 6-(3-((5-chloro-2-methoxypyridine)-3-sulfonamido)-2,6-difluorophenyl)-N-methylimidazo[1,5-a]pyrazine-1-carboxamide]
ARAUC [1]: 1.45 | ARAUC [2]: 1.46 | ARAUC [3]: 1.89 | ARAUC [4]: 1.77 | ARAUC [5]: 1.13 | dose proportionality of exposure (geometric mean Cmax and AUC) (human subjects, 10 to 75 mg, single dose and multiple once daily dosing): increased approximately proportional to increases in dose | time by which exposure appeared to be at steady-state (human subjects, continuous once daily dosing, trough concentrations): Cycle 1 Day 8 to Day 15 | dose proportionality of exposure (human subjects, increase from 75 to 125 mg, single dose administration): slightly greater than dose proportional | geometric mean accumulation ratio (ARAUC) [6]: 1.45 | geometric mean linearity ratio (LR) [6]: 1.11 | geometric mean accumulation ratio (ARAUC) [7]: 1.46 | geometric mean linearity ratio (LR) [7]: 1.14 | geometric mean accumulation ratio (ARAUC) [8]: 1.89 | geometric mean linearity ratio (LR) [8]: 1.11 | geometric mean accumulation ratio (ARAUC) [9]: 1.77 | geometric mean linearity ratio (LR) [9]: 1.22 | accumulation ratio (ARAUC) [10]: 1.13 | linearity ratio (LR) [10]: 0.759 | CL/F [1]: 0.457 L/h | Ctrough [1]: 517 ng/mL | DAUC0-last [1]: 1700 ng·h/mL/mg | DAUC0-τ [1]: 2190 ng·h/mL/mg | DCmax [1]: 198 ng/mL/mg | tlast (multiple once daily oral 10 mg (N = 3), Cycle 1 Day 21, median): 12.00 h | CL/F [2]: 0.478 L/h | Ctrough [2]: 674 ng/mL | DAUC0-last [2]: 2090 ng·h/mL/mg | DAUC0-τ [2]: 2090 ng·h/mL/mg | DCmax [2]: 185 ng/mL/mg | tlast (multiple once daily oral 20 mg (N = 3), Cycle 1 Day 21, median): 24.00 h | CL/F [3]: 0.403 L/h | Ctrough [3]: 2360 ng/mL | DAUC0-last [3]: 2380 ng·h/mL/mg | DAUC0-τ [3]: 2480 ng·h/mL/mg | DCmax [3]: 184 ng/mL/mg | tlast (multiple once daily oral 40 mg (N = 8), Cycle 1 Day 21, median): 24.00 h | CL/F [4]: 0.402 L/h | Ctrough [4]: 5010 ng/mL | DAUC0-last [4]: 2210 ng·h/mL/mg | DAUC0-τ [4]: 2490 ng·h/mL/mg | DCmax [4]: 190 ng/mL/mg | tlast (multiple once daily oral 75 mg (N = 7), Cycle 1 Day 21, median): 24.00 h | CL/F [5]: 0.311 L/h | Ctrough [5]: 3780 ng/mL | DAUC0-last [5]: 2080 ng·h/mL/mg | DAUC0-τ [5]: 3210 ng·h/mL/mg | DCmax [5]: 306 ng/mL/mg | Cmax [11]: 1980 ng/mL | half-life [11]: 596 min | AUC(0-t) (10 mg, multiple once daily oral 10 mg (N = 3), Cycle 1 Day 21, geometric mean, read-out: AUC0-last): 17000 ng·h/mL | Vd/F [11]: 6.55 L | Tmax (10 mg, multiple once daily oral 10 mg (N = 3), Cycle 1 Day 21, median): 2 h | Cmax [12]: 1450 ng/mL | half-life [12]: 678 min | AUC(0-t) (10 mg, single oral dose 10 mg (N = 3), Cycle 1 Day 1, geometric mean, read-out: AUC0-24): 15100 ng·h/mL | AUC(0-t) (10 mg, single oral dose 10 mg (N = 3), Cycle 1 Day 1, geometric mean, read-out: AUC0-last): 15100 ng·h/mL | Vd/F [12]: 8.26 L | Tmax (10 mg, single oral dose 10 mg (N = 3), Cycle 1 Day 1, median): 2 h | Cmax [13]: 3710 ng/mL | half-life [13]: 732 min | AUC(0-t) (20 mg, multiple once daily oral 20 mg (N = 3), Cycle 1 Day 21, geometric mean, read-out: AUC0-last): 41900 ng·h/mL | Vd/F [13]: 8.4 L | Tmax (20 mg, multiple once daily oral 20 mg (N = 3), Cycle 1 Day 21, median): 2 h | Cmax [14]: 2330 ng/mL | half-life [14]: 599 min | AUC(0-t) (20 mg, single oral dose 20 mg (N = 3), Cycle 1 Day 1, geometric mean, read-out: AUC0-24): 28700 ng·h/mL | AUC(0-t) (20 mg, single oral dose 20 mg (N = 3), Cycle 1 Day 1, geometric mean, read-out: AUC0-last): 28700 ng·h/mL | Vd/F [14]: 7.84 L | Tmax (20 mg, single oral dose 20 mg (N = 3), Cycle 1 Day 1, median): 4 h | Cmax [15]: 7360 ng/mL | half-life [15]: 744 min | AUC(0-t) (40 mg, multiple once daily oral 40 mg (N = 8), Cycle 1 Day 21, geometric mean, read-out: AUC0-last): 95000 ng·h/mL | Vd/F [15]: 8.31 L | Tmax (40 mg, multiple once daily oral 40 mg (N = 8), Cycle 1 Day 21, median): 2 h | Cmax [16]: 4520 ng/mL | half-life [16]: 888 min
